# Laboratory results taken from ChEMBL document CHEMBL1201862, “PubChem BioAssay data set” (2004).
# Activity calls are given as the source filed them.
# How the values were obtained:
# [1] = Luminescence Cell-Based Dose Confirmation HTS to Identify Activators of 5'UTR Stem-Loop Driven Alpha-Synuclein mRNA Translation in H4 Neuroglioblastoma Cells. [Related pubchem assays: 1829 (Project Summary), 1814 (Primary HTS)]; type: functional
# [2] = Luminescence Cell-Based Dose Response HTS to Identify Activators of Luciferase Translation or Activity in H4 […] Cells. [Related pubchem assays: 1829 (Project Summary), 1814 (Primary HTS)]; type: functional
# H4 = assay: Luminescence Cell-Based Dose Response HTS to Identify Activators of 5'UTR Stem-Loop Driven Prion Protein mRNA Translation in H4 Neuroglioblastoma Cells. [Related pubchem assays: 1829 (Project Summary), 1814 (Primary HTS)]; type: functional; conditions: Homo sapiens
# P388/ADR = assay: cells; type: functional
# SN12K1 = assay: cells; type: functional; conditions: Homo sapiens
# P388 = assay: cells; type: functional
# Protein skinhead-1 = target: T1, Protein skinhead-1 (Caenorhabditis elegans, UniProt P34707); type: functional
# T1 sequence (P34707 whole entry): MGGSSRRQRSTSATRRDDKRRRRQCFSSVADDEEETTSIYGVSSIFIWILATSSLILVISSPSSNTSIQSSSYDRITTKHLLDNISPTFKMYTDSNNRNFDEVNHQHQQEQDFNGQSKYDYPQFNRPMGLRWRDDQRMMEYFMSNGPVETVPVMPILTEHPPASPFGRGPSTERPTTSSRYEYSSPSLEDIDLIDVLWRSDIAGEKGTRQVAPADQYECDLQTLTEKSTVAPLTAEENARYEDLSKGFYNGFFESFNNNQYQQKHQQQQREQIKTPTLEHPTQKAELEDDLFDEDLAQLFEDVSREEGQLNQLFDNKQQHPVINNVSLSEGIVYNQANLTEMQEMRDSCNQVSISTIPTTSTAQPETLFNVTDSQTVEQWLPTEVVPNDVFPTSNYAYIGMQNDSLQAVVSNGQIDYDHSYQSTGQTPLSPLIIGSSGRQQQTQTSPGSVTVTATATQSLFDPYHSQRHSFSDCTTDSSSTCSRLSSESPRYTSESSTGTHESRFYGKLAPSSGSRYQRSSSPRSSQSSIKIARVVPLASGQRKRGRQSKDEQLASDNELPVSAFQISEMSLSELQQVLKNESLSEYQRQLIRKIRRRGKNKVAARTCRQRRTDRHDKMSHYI
# [3] = growth suppression of PTEN-null colon cells, dose response, cell-based, HCT116 PTEN knockout (AID 1047); type: functional;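 also: HCT116 colon tumor cells with PTEN knocked out; cells exposed to compound for 60 hours before readout; potency for loss of cell viability measured by luminescence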
# [4] = growth suppression of beta-catenin-knockout colon cells, dose response, cell-based, HCT116, human colon tumor (AID 1045); type: functional;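 also: HCT116 colon tumor cells with beta catenin knocked out; cells exposed to compound for 60 hours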
# [5] = system: Streptococcus sp. 'group A'; assay: growth inhibition of control SK(-) GAS strain, dose response, counter-screen for streptokinase expression inhibitor project, luminescence, kanamycin, BacTiterGlo, confirmation (AID 1900); type: functional, organism-based
# Streptokinase A = target: T2, Streptokinase A (Streptococcus pyogenes serotype M1, UniProt P10520); assay: S. pyogenes streptokinase expression inhibitors, potency, dose response, plasminogen activation absorbance, OD405 (AID 1914); type: functional, Streptococcus pyogenes M1 GAS;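 also: secreted streptokinase activity via plasminogen activation per viability signal from cell pellet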
# T2 sequence (P10520 whole entry): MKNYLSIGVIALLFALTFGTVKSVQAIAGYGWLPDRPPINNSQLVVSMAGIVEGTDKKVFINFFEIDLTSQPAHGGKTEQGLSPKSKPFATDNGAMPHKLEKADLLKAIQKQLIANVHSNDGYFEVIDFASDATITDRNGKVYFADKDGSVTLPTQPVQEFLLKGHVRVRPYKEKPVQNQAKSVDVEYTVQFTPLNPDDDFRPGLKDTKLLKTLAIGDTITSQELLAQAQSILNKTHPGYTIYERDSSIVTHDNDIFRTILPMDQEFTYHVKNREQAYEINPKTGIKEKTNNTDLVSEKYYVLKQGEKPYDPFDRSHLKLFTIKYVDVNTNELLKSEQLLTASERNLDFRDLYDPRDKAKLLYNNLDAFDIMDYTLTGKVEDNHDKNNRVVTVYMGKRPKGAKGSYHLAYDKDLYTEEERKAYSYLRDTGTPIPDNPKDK
# [6] = microbe, parasite or virus in culture; type: functional; conditions: Mycobacterium tuberculosis
# Streptococcus = assay: Group A Streptococcus viability loss, dose response, counter-screen for streptokinase expression inhibitor project, luminescence, BacTiterGlo (AID 1915); type: functional, organism-based;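 also: potency for reduction of bacterial viability or growth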
# [7] = P. falciparum Dd2 growth inhibitors, dose response, SYBR Green, cherry-picked samples (AID 1159567); type: functional, cell-based
smiles,measurement,setting,value
COc1ccc2o/c(=N/c3cc(F)ccc3F)c(C(N)=O)cc2c1,EC50,[1],> 120 µM (not active)
same,EC50,[2],> 120 µM (not active)
same,EC50,H4,> 120 µM (not active)
O=P1(Oc2ccc(Cl)cc2Cl)Oc2cc3ccccc3cc2O1,GI50,"P388/ADR; Mus musculus, P388/ADR",22.4 µM (inactive)
same,GI50,SN12K1,59.4 µM (inactive)
same,GI50,"P388; Mus musculus, P388",14 µM (inactive)
Cc1c2cnccc2c(C)c2c1c1ccccc1n2CCCN,GI50,"P388/ADR; Mus musculus, P388/ADR",0.157 µM (active)
same,GI50,SN12K1,0.222 µM (active)
same,GI50,"P388; Mus musculus, P388",0.0931 µM (active)
C=C1CC(OC)(C(O)C(=O)N[C@H]2OCO[C@H]3C2O[C@H](C[C@H](O)COC)C(C)(C)C3OC)O[C@H](C)[C@@H]1C (some centres not stated),GI50,"P388/ADR; Mus musculus, P388/ADR",< 0.00773 µM (active)
same,GI50,SN12K1,< 0.00773 µM (active)
same,GI50,"P388; Mus musculus, P388",< 0.00773 µM (active)
CSCC[C@@H](NC(=O)[C@H](CC(C)C)NC(=O)C(Cc1cnc[nH]1)NC(=O)CNC(=O)[C@@H](NC(=O)[C@H](C)NC(=O)[C@H](Cc1c[nH]c2ccccc12)NC(=O)[C@H](CCC(N)=O)NC(=O)[C@@H](N)CC(N)=O)C(C)C)C(N)=O (some centres not stated),GI50,"P388/ADR; Mus musculus, P388/ADR",> 100 µM (inactive)
same,GI50,SN12K1,> 100 µM (inactive)
same,GI50,"P388; Mus musculus, P388",> 100 µM (inactive)
NC(=O)c1csc(C2OC(CO)C(O)C2O)n1 (configuration not stated),GI50,"P388/ADR; Mus musculus, P388/ADR",1.79 µM (inactive)
same,GI50,SN12K1,77.8 µM (inactive)
same,GI50,"P388; Mus musculus, P388",1.86 µM (inactive)
Nc1ncn(C2OC(CO)C(O)C2O)c(=O)n1 (configuration not stated),GI50,P388/ADR,0.489 µM (active)
same,GI50,"P388/ADR; Mus musculus, P388/ADR",0.393 µM (active)
same,GI50,P388,0.452 µM (active)
same,GI50,"P388; Mus musculus, P388",0.348 µM (active)
Cc1ccc(Nc2nc(/N=C/N(C)C)n[nH]2)cc1C,EC50,[1],> 120 µM (not active)
same,EC50,[2],> 120 µM (not active)
same,EC50,H4,28.2 µM (active)
FCCCOc1ccc(/C=N/OCc2ccc(Cl)cc2)cc1,IC50,Protein skinhead-1,> 100 µM (inactive)
CCOC(=O)c1ccc(-c2ccc(/C=N/NC(=O)CN(c3ccccc3Cl)S(C)(=O)=O)o2)cc1,EC50,[1],14.3 µM (active)
same,EC50,[2],28.6 µM (active)
same,EC50,H4,33.3 µM (active)
same,EC50,[3],29.4 µM (active)
same,EC50,[4],37.6 µM (active)
C#CCn1/c(=N/C(=O)c2cc(Cl)sc2Cl)sc2cc(S(N)(=O)=O)ccc21,EC50,[5],14 µM (active)
same,EC50,Streptokinase A,> 150 µM (not active)
same,CC50,[6],> 40 µM (active)
same,EC50,Streptococcus,> 150 µM (not active)
O=C(c1cccc(F)c1)N1CC[C@H]2[C@H](CO)Nc3ccc(C#Cc4cccc(F)c4)cc3[C@H]21,AC50,[7],4.2 µM (active)
CCCC(=O)N1CC2(C1)CN(Cc1ccccc1F)[C@H](CO)c1c2c2ccc(OC)cc2n1C,AC50,[7],6.14 µM (active)
N#C[C@@H]1[C@H](c2ccccc2C2=CCCCC2)[C@@H](CO)N1S(=O)(=O)c1ccccc1,AC50,[7],15 µM (active)
C/C=C/c1ccc([C@@H]2[C@H](CO)N(CC3CCCC3)C23CN(C(=O)CC2CC2)C3)cc1,AC50,[7],5.78 µM (active)
CCC(=O)Nc1ccc2c(c1)C(=O)N(C)C[C@H](OC)[C@H](C)CN(Cc1cccc(F)c1)[C@@H](C)CO2,AC50,[7],11.3 µM (active)
CC1(C)CC(=O)c2sc(N3CCCCC3)nc2C1,EC50,[1],8.85 µM (active)
same,EC50,[2],68.7 µM (active)
same,EC50,H4,74 µM (active)
Cc1cc(C)n(CC(O)COc2ccc3ccccc3c2)n1 (configuration not stated),EC50,[1],16.4 µM (active)
same,EC50,[2],16.5 µM (active)
same,EC50,H4,31.3 µM (active)
Cc1c(-c2ccc(-c3ccccc3F)cc2)nc2ccc(F)cc2c1C(=O)O [BREQUINAR SODIUM],GI50,"P388/ADR; Mus musculus, P388/ADR",0.197 µM (active)
same,GI50,SN12K1,0.0902 µM (active)
same,GI50,"P388; Mus musculus, P388",0.359 µM (active)
CC[C@](C)(O)C(=O)O[C@H]1C(=O)O[C@@H]2C[C@H]3C(C)=CC(=O)[C@@H](O)[C@]3(C)[C@H]3[C@@]4(O)OC[C@]32[C@@H]1[C@@H](C)[C@H]4O [GLAUCARUBINONE],GI50,"P388/ADR; Mus musculus, P388/ADR",0.664 µM (active)
same,GI50,SN12K1,0.05 µM (active)
same,GI50,"P388; Mus musculus, P388",0.0676 µM (active)
